Legend:
[1] = clinical
Description: PK assessments included the following tests. […] The total number of PK samples collected was approximately 115 mL of whole blood (7-8 tablespoons). If a patient experienced a potentially drug-related SAE, additional PK samples were collected. Blood was drawn from the contralateral arm to the infusion site using an indwelling catheter to avoid multiple needle sticks. […] The blood tube was inverted several times and the tube placed in wet ice immediately pending separation of the plasma. If a catheter was used for blood collection, the fluid in the catheter was completely withdrawn prior to each sample collection and discarded. Plasma samples were kept on wet ice during collection and centrifugation. Plasma samples were split into two cryovials prior to freezing at −70° C.

[2] = Dose limiting toxicity and drug-related toxicities in dose-escalating clinical trial; format: in vivo, human; settings: twice weekly for two out of three weeks (Days 1, 4, 8, 11; 21 day cycle)
Description: Eighteen patients were treated in accordance with this protocol.

[3] = test system: plasma protein; assay: Plasma protein binding, in vitro assays using human blood; format: in vitro ADME
[4] = test system: cytochrome P450 enzymes; assay: In vitro metabolism studies; format: in vitro ADME
[5] = test system: SKBr3 breast cancer cells; settings: cited from earlier work
[6] = test system: breast cancer cells; settings: cited from earlier work
[7] = test system: MEXF 276L melanoma cells; settings: cited from earlier work
[8] = test system: colon adenocarcinoma cells; settings: cited from earlier work
[9] = test system: leukemia cells; settings: cited from earlier work
[10] = test system: lung cancer cells with wild-type Rb; settings: cited from earlier work
[11] = test system: NSCLC cells; settings: cited from earlier work
[12] = test system: diffuse GFP positive MM lesions; settings: SCID/NOD mice; cited from earlier work
[13] = test system: adult patients with solid tumors; settings: cited from earlier work
[14] = test system: patients with advanced solid tumors; settings: cited from earlier work
[15] = test system: patients with advanced malignancies incl. metastatic melanoma; settings: cited from earlier work
[16] = Cohorts 1 & 2, 17-AAG 100 mg/m^2, Max
[17] = Cohorts 1 & 2, 17-AAG 100 mg/m^2, Mean
[18] = Cohorts 1 & 2, 17-AAG 100 mg/m^2, Median
[19] = Cohorts 1 & 2, 17-AAG 100 mg/m^2, Min
[20] = Cohorts 3 & 4, 17-AAG 150 mg/m^2, Max
[21] = Cohorts 3 & 4, 17-AAG 150 mg/m^2, Mean
[22] = Cohorts 3 & 4, 17-AAG 150 mg/m^2, Median
[23] = Cohorts 3 & 4, 17-AAG 150 mg/m^2, Min
[24] = highest dose level (450 mg/m^2)

SMILES: C=CCNC1=C2C[C@@H](C)C[C@H](OC)[C@H](O)[C@@H](C)/C=C(\C)[C@H](OC(N)=O)[C@@H](OC)/C=C\C=C(/C)C(=O)NC(=CC1=O)C2=O [17-AAG, 17-Allylamino-17-demethoxygeldanamycin]
- AUCext [1, 16]: 10.80%
- AUCextra [1, 16]: 608.6 ng·h/mL
- AUClast [1, 16]: 7,248.8 ng/mL * h
- AUCtotal [1, 16]: 7,857.4 ng/mL * h
- Cmax [1, 16]: 2,620 ng/mL
- MRT [1, 16]: 6.04 h
- Tmax [1, 16]: 3 h
- t1/2 [1, 16]: 5.16 h
- AUCext [1, 17]: 6%
- AUCtotal [1, 17]: 3,805 ng/mL * h
- Clearance [1, 17]: 28.63 L/h/m^2
- Vss [1, 17]: 93.88 L/m^2
- Vz [1, 17]: 104.58 L/m^2
- AUCext [1, 18]: 6.10%
- AUCtotal [1, 18]: 3,513.8 ng/mL * h
- Clearance [1, 18]: 28.46 L/h/m^2
- Vss [1, 18]: 79.65 L/m^2
- Vz [1, 18]: 99.17 L/m^2
- AUCext [1, 19]: 2.54%
- AUCextra [1, 19]: 87.9 ng·h/mL
- AUClast [1, 19]: 2,231.7 ng/mL * h
- AUCtotal [1, 19]: 2,380.5 ng/mL * h
- Cmax [1, 19]: 755 ng/mL
- MRT [1, 19]: 2.37 h
- Tmax [1, 19]: 0.5 h
- t1/2 [1, 19]: 1.72 h
- AUCext [1, 20]: 10.5%
- AUCextra [1, 20]: 595 ng·h/mL
- AUClast [1, 20]: 17,650 ng/mL * h
- AUCtotal [1, 20]: 18,246 ng/mL * h
- Cmax [1, 20]: 9,540 ng/mL
- MRT [1, 20]: 6.0 h
- Tmax [1, 20]: 2.17 h
- t1/2 [1, 20]: 5.7 h
- AUCext [1, 21]: 5%
- AUCtotal [1, 21]: 6,030 ng/mL * h
- Clearance [1, 21]: 28.94 L/h/m^2
- Vss [1, 21]: 80.89 L/m^2
- Vz [1, 21]: 94.79 L/m^2
- AUCext [1, 22]: 3.8%
- AUCtotal [1, 22]: 5,071 ng/mL * h
- Clearance [1, 22]: 29.6 L/h/m^2
- Vss [1, 22]: 84.3 L/m^2
- Vz [1, 22]: 93.7 L/m^2
- AUCext [1, 23]: 0.9%
- AUCextra [1, 23]: 54 ng·h/mL
- AUClast [1, 23]: 3,152 ng/mL * h
- AUCtotal [1, 23]: 3,294 ng/mL * h
- Cmax [1, 23]: 1,830 ng/mL
- MRT [1, 23]: 1.5 h
- Tmax [1, 23]: 0.5 h
- t1/2 [1, 23]: 1.6 h
- Total systemic clearance ([1]; cohorts 1-4 combined): 28.83±8.51 L/h/m^2
- distributive volume VSS ([1]; cohorts 1-4 combined): 85.25±31.60 L/m^2
- distributive volume VZ ([1]; cohorts 1-4 combined): 98.05±36.41 L/m^2
- Clearance ([1]; human, in vivo, 100 mg/m2): 924 mL/min
- Vd ([1]; human, in vivo, 100 mg/m2, Vss, Cohorts 1 & 2, 17-AAG 100 mg/m^2, Median): 159 L
- half-life ([1]; human, in vivo, 150 mg/m2): 2.2 h
- Vd ([1]; human, in vivo, 150 mg/m2, Vss, Cohorts 3 & 4, 17-AAG 150 mg/m^2, Mean): 143 L
- Vd ([1]; human, in vivo, 150 mg/m2, Vz, Cohorts 3 & 4, 17-AAG 150 mg/m^2, Median): 172 L
- Vd ([1]; human, in vivo, distributive volume VZ, cohorts 1-4 combined): 175 ± 68.2 L
- AUC ([1]; human, plasma, intravenous, 100 mg/m2, AUCextra, Cohorts 1 & 2, 17-AAG 100 mg/m^2, Mean): 225 ng·h/mL
- AUC ([1]; human, plasma, intravenous, 100 mg/m2, AUCextra, Cohorts 1 & 2, 17-AAG 100 mg/m^2, Median): 166 ng·h/mL
- AUC(0-t) ([1]; human, plasma, intravenous, 100 mg/m2, AUClast, Cohorts 1 & 2, 17-AAG 100 mg/m^2, Mean): 3580 ng·h/mL
- AUC(0-t) ([1]; human, plasma, intravenous, 100 mg/m2, AUClast, Cohorts 1 & 2, 17-AAG 100 mg/m^2, Median): 3350 ng·h/mL
- Clearance ([1]; human, plasma, intravenous, 100 mg/m2, Clearance, Cohorts 1 & 2, 17-AAG 100 mg/m^2, Mean): 879 mL/min
- Cmax ([1]; human, plasma, intravenous, 100 mg/m2, Cmax, Cohorts 1 & 2, 17-AAG 100 mg/m^2, Mean): 1790 ng/mL
- Cmax ([1]; human, plasma, intravenous, 100 mg/m2, Cmax, Cohorts 1 & 2, 17-AAG 100 mg/m^2, Median): 1740 ng/mL
- MRT ([1]; human, plasma, intravenous, 100 mg/m2, MRT, Cohorts 1 & 2, 17-AAG 100 mg/m^2, Mean): 3.32 h
- MRT ([1]; human, plasma, intravenous, 100 mg/m2, MRT, Cohorts 1 & 2, 17-AAG 100 mg/m^2, Median): 2.89 h
- Tmax ([1]; human, plasma, intravenous, 100 mg/m2, Tmax, Cohorts 1 & 2, 17-AAG 100 mg/m^2, Mean): 1 h
- Tmax ([1]; human, plasma, intravenous, 100 mg/m2, Tmax, Cohorts 1 & 2, 17-AAG 100 mg/m^2, Median): 1 h
- Vd ([1]; human, plasma, intravenous, 100 mg/m2, Vss, Cohorts 1 & 2, 17-AAG 100 mg/m^2, Mean): 174 L
- Vd ([1]; human, plasma, intravenous, 100 mg/m2, Vz, Cohorts 1 & 2, 17-AAG 100 mg/m^2, Mean): 193 L
- Vd ([1]; human, plasma, intravenous, 100 mg/m2, Vz, Cohorts 1 & 2, 17-AAG 100 mg/m^2, Median): 188 L
- half-life ([1]; human, plasma, intravenous, 100 mg/m2, t1/2, Cohorts 1 & 2, 17-AAG 100 mg/m^2, Mean): 2.49 h
- half-life ([1]; human, plasma, intravenous, 100 mg/m2, t1/2, Cohorts 1 & 2, 17-AAG 100 mg/m^2, Median): 2.29 h
- AUC ([1]; human, plasma, intravenous, 150 mg/m2, AUCextra, Cohorts 3 & 4, 17-AAG 150 mg/m^2, Mean): 256 ng·h/mL
- AUC ([1]; human, plasma, intravenous, 150 mg/m2, AUCextra, Cohorts 3 & 4, 17-AAG 150 mg/m^2, Median): 199 ng·h/mL
- AUC(0-t) ([1]; human, plasma, intravenous, 150 mg/m2, AUClast, Cohorts 3 & 4, 17-AAG 150 mg/m^2, Mean): 5770 ng·h/mL
- AUC(0-t) ([1]; human, plasma, intravenous, 150 mg/m2, AUClast, Cohorts 3 & 4, 17-AAG 150 mg/m^2, Median): 4870 ng·h/mL
- Clearance ([1]; human, plasma, intravenous, 150 mg/m2, Clearance, Cohorts 3 & 4, 17-AAG 150 mg/m^2, Mean): 850 mL/min
- Clearance ([1]; human, plasma, intravenous, 150 mg/m2, Clearance, Cohorts 3 & 4, 17-AAG 150 mg/m^2, Median): 843 mL/min
- Cmax ([1]; human, plasma, intravenous, 150 mg/m2, Cmax, Cohorts 3 & 4, 17-AAG 150 mg/m^2, Mean): 3470 ng/mL
- Cmax ([1]; human, plasma, intravenous, 150 mg/m2, Cmax, Cohorts 3 & 4, 17-AAG 150 mg/m^2, Median): 2740 ng/mL
- MRT ([1]; human, plasma, intravenous, 150 mg/m2, MRT, Cohorts 3 & 4, 17-AAG 150 mg/m^2, Mean): 2.89 h
- MRT ([1]; human, plasma, intravenous, 150 mg/m2, MRT, Cohorts 3 & 4, 17-AAG 150 mg/m^2, Median): 2.9 h
- Tmax ([1]; human, plasma, intravenous, 150 mg/m2, Tmax, Cohorts 3 & 4, 17-AAG 150 mg/m^2, Mean): 1 h
- Tmax ([1]; human, plasma, intravenous, 150 mg/m2, Tmax, Cohorts 3 & 4, 17-AAG 150 mg/m^2, Median): 0.97 h
- Vd ([1]; human, plasma, intravenous, 150 mg/m2, Vss, Cohorts 3 & 4, 17-AAG 150 mg/m^2, Median): 151 L
- Vd ([1]; human, plasma, intravenous, 150 mg/m2, Vz, Cohorts 3 & 4, 17-AAG 150 mg/m^2, Mean): 166 L
- half-life ([1]; human, plasma, intravenous, 150 mg/m2, t1/2, Cohorts 3 & 4, 17-AAG 150 mg/m^2, Mean): 2.4 h
- half-life ([1]; human, plasma, intravenous, Terminal elimination half-life, cohorts 1-4 combined): 2.43 ± 0.9 h
- Clearance ([1]; human, plasma, intravenous, Total systemic clearance, cohorts 1-4 combined): 860 mL/min
- Vd ([1]; human, plasma, intravenous, distributive volume VSS, cohorts 1-4 combined): 153 ± 62.3 L
- 17-AAG dose employed without reaching dose limiting toxicity (DLT) in any treated patient [2]: 275 mg/m^2
- protein bound in plasma [3]: approximately 95%
- enzymes involved in metabolism [4]: implicate the involvement of cytochrome P450 enzymes
- effect of exposure on client proteins [5]: depletion of erbB2 and destabilization of Raf-1 and mutant p53
- effect of exposure on client proteins [6]: depletion of steroid receptors
- effect of exposure on client proteins [7]: depletion of Hsp90 and down-regulation of Raf-1 and erbB2
- effect of exposure on client proteins [8]: depletion of Raf-1, c-Akt, and Erk1/2
- effect of exposure on client proteins [9]: down-regulation of intracellular Bcr-Abl and c-Raf proteins and reduction of Akt kinase activity
- effect of exposure on client proteins [10]: degradation of cdk4, cdk6, and cyclin E
- effect of exposure on client proteins [11]: depletion of erbB1 (EGFR) and erbB2 (p185) levels
- survival analysis [12]: significantly prolonged median overall survival
- maximum tolerated dose (MTD) and recommended Phase 2 dose ([13]; daily for 5 days every 3 weeks): 40 mg/m^2
- dose limiting toxicity ([13]; daily x5 schedule): reversible hepatotoxicity
- objective tumor responses ([13]; doses up to 110 mg/m^2): No objective tumor responses
- VZ ([13]; in vivo): 93 L/m^2
- Clearance ([13]; patients treated at 56 mg/m^2): 19.9 L/h/m^2
- average AUC ([13]; patients treated at 56 mg/m^2): 6,708 nM*h
- dose limiting toxicities ([14]; at the 80 mg/m^2 dose, daily x5): hepatitis, abdominal pain, nausea, dyspnea
- Cmax ([14]; read-out: plasma Cmax, 80 mg/m^2 dose level): 2700 nM
- mean peak plasma level ([15]; 450 mg/m^2): 8,998 μg/L
- mean volume of distribution ([15]; 450 mg/m^2): 142.6 L
- induction of the co-chaperone protein Hsp70 ([15]; 320-450 mg/m^2/week): 8 of 9
- CDK4 depletion in tumor biopsies ([15]; at 24 hours): 8 out of 9
- Raf-1 depletion in tumor biopsies ([15]; at 24 hours): 4 out of 6
- period plasma 17-AAG concentrations remained above 120 nM [15, 24]: > 24 h
- plasma 17-AAG concentrations [15, 24]: exceeded 10 μM
- complete or partial responses ([15]; in vivo): No complete or partial responses
- dose at which dose limiting toxicity was observed ([15]; once weekly, grade ¾ elevation of AST): 450 mg/m^2/week
- stable disease ([15]; patients treated at 320-450 mg/m^2): two showed radiologically documented long term stable disease

Source: patent US20060252740A1 (priority 2005, published 2006)
